Read-outs that look alike come from different tables or passages of the source.
Biological target: canine TRPM8 (Canis lupus familiaris, UniProt Q1A7N1)
Test: In Vitro Canine TRPM8 Functional Assay (Ca2+ fluorescence, icilin activation)
Type: cell-based
Conditions: for inhibition at 0.2 µM: compound at 0.2 μM, read-out: % Inh @ 0.2; for IC50: HEK293 cells stably expressing canine TRPM8, icilin activation, eight-point dose-response, read-out: IC50
In short: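 HEK293 cells stably expressing canine TRPM8 were loaded with Calcium 3 dye (35 min at 37 °C, then 25 min at room temperature). Compound was added and Ca2+ fluorescence was read for 5 min before icilin at a concentration giving about 80% maximal response. EC50/IC50 came from eight-point dose-response curves, quadruplicate wells.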

[1] = canine TRPM8, icilin activation
[2] = compound at 0.5 μM, canine TRPM8, icilin activation, read-out: % Inh @ 0.5

Chain of canine TRPM8 (Q1A7N1 1-1104): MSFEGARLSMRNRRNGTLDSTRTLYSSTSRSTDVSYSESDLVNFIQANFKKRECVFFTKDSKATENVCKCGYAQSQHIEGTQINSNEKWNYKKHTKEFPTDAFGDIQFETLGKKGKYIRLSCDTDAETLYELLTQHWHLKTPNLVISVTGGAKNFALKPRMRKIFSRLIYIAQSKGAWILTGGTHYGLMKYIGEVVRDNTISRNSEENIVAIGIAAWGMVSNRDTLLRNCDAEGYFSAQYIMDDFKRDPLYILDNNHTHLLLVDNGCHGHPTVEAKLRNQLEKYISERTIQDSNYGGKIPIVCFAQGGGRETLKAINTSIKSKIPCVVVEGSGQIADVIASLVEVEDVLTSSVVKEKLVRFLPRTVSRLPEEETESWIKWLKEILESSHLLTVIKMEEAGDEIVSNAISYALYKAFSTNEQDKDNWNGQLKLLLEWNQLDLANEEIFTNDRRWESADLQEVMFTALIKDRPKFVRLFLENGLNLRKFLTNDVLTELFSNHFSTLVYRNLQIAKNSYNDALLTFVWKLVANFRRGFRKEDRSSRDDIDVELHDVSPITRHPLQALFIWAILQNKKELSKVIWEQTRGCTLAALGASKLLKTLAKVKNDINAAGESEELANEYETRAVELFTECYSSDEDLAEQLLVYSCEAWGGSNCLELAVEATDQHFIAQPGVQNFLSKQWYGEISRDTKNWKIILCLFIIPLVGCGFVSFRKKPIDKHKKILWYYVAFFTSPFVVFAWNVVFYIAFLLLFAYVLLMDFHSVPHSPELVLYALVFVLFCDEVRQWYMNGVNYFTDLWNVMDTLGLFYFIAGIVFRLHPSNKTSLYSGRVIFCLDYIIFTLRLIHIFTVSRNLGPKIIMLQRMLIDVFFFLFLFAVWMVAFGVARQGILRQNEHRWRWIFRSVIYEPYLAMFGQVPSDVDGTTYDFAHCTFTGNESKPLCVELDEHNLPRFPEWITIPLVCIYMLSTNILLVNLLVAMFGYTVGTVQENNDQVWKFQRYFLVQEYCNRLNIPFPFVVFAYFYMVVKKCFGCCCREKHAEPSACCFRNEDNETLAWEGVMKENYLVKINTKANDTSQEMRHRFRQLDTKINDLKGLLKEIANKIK

Row | SMILES | inhibition at 0.2 µM [1] | IC50 | inhibition at 0.5 µM [2] | inhibition at 0.5 µM (read-out: % Inh @ 0.5 (μM))
1 | CCS(=O)(=O)N(Cc1ccc(F)c(F)c1)c1sc2ccccc2c1C(C)=O [Compound 203] |  |  |  | 93%
2 | CC(=O)c1c(N(Cc2ccc(F)c(F)c2)S(=O)(=O)c2ccccc2)sc2ccccc12 [Compound 204, N-(3-Acetyl-benzo[b]thiophen-2-yl)-N-(3,4-difluoro-benzyl)-benzenesulfonamide] |  | 6 nM | 96% | 
3 | CCS(=O)(=O)N(Cc1ccc(F)c(C(F)(F)F)c1)c1sc2ccccc2c1C(C)=O [Compound 205, N-(3-Acetyl-benzo[b]thiophen-2-yl)-N-(4-fluoro-3-trifluoromethyl-benzyl)-ethanesulfonamide] |  | 3 nM | 96% | 
4 | CS(=O)(=O)N(Cc1ccc(F)c(F)c1)c1sc2ccccc2c1C=O [Compound 209, N-(3,4-Difluoro-benzyl)-N-(3-formyl-benzo[b]thiophen-2-yl)-methanesulfonamide] | 98% | 32 nM |  | 
5 | O=S(=O)(c1ccccc1)N(Cc1ccc(F)c(F)c1)c1sc2ccccc2c1CO [Compound 213, N-(3,4-Difluoro-benzyl)-N-(3-hydroxymethyl-benzo[b]thiophen-2-yl)-benzenesulfonamide] | 95% | 1.4 nM |  | 
6 | CS(=O)(=O)N(Cc1ccc(F)c(C(F)(F)F)c1)c1sc2ccccc2c1CO [Compound 215, N-(4-Fluoro-3-trifluoromethyl-benzyl)-N-(3-hydroxymethyl-benzo[b]thiophen-2-yl)-methanesulfonamide] | 101% | 6 nM |  | 
7 | CS(=O)(=O)N(Cc1ccc(F)c(F)c1)c1sc2ccccc2c1CO [Compound 216, N-(3,4-Difluoro-benzyl)-N-(3-hydroxymethyl-benzo[b]thiophen-2-yl)-methanesulfonamide] | 100% | 14 nM |  | 
8 | CCS(=O)(=O)N(Cc1ccc(F)c(C(F)(F)F)c1)c1sc2ccccc2c1CO [Compound 217, N-(4-Fluoro-3-trifluoromethyl-benzyl)-N-(3-hydroxymethyl-benzo[b]thiophen-2-yl)-ethanesulfonamide] | 88% | 3 nM |  | 
9 | CCS(=O)(=O)N(Cc1ccc(F)c(C(F)(F)F)c1)c1sc2ccccc2c1C(C)O (stereo not drawn) [Compound 220, N-(4-Fluoro-3-trifluoromethyl-benzyl)-N-[3-(1-hydroxy-ethyl)-benzo[b]thiophen-2-yl]-ethanesulfonamide] | 98% | 1.2 nM | 99% | 
10 | CCS(=O)(=O)N(Cc1ccc(F)c(F)c1)c1sc2ccccc2c1C(C)O (stereo not drawn) [Compound 221, N-(3,4-Difluoro-benzyl)-N-[3-(1-hydroxy-ethyl)-benzo[b]thiophen-2-yl]-ethanesulfonamide] | 92% | 5 nM |  | 
11 | CC(O)c1c(N(Cc2ccc(F)c(C(F)(F)F)c2)S(=O)(=O)c2ccccc2)sc2ccccc12 (stereo not drawn) [Compound 223, N-(4-Fluoro-3-trifluoromethyl-benzyl)-N-[3-(1-hydroxy-ethyl)-benzo[b]thiophen-2-yl]-benzenesulfonamide] | 96% | 2.3 nM |  | 
12 | CC(=O)c1c(N(Cc2ccc(F)c(C(F)(F)F)c2)S(C)(=O)=O)sc2ccccc12 [Compound 228, N-(3-Acetyl-benzo[b]thiophen-2-yl)-N-(4-fluoro-3-trifluoromethyl-benzyl)-methanesulfonamide] | 101% | 6 nM |  | 
13 | CC(=O)c1c(N(Cc2ccc(F)c(F)c2)S(C)(=O)=O)sc2ccccc12 [Compound 229, N-(3-Acetyl-benzo[b]thiophen-2-yl)-N-(3,4-difluoro-benzyl)-methanesulfonamide] | 99% | 21 nM |  | 
14 | CCOC(=O)CCCCCN(c1sc2ccccc2c1Br)S(=O)(=O)c1ccccc1 [Compound 230, N-(3-Bromo-benzo[b]thiophen-2-yl)-N-(5-carboethoxy-pentyl)benzenesulfonamide] | 100% | 12.9 nM |  | 
15 | CCCCN(c1sc2ccccc2c1Br)S(=O)(=O)c1ccccc1 [Compound 231, N-(3-Bromo-benzo[b]thiophen-2-yl)-N-(butyl)-benzenesulfonamide] |  | 29 nM | 95% | 
16 | O=S(=O)(c1ccccc1)N(CCc1ccccc1)c1sc2ccccc2c1Br [Compound 233, N-(3-Bromo-benzo[b]thiophen-2-yl)-N-(phenethyl)-benzenesulfonamide] |  | 22 nM | 93% | 
17 | CC(C)(C)OCCN(c1sc2ccccc2c1Br)S(=O)(=O)c1ccccc1 [Compound 234, N-(3-Bromo-benzo[b]thiophen-2-yl)-N-(2-tert-butoxy-ethyl)-benzenesulfonamide] |  | 10 nM | 93% | 

More lines, main results first:

Row | inhibition at 0.2 µM [1] | IC50 | inhibition at 0.5 µM [2] | SMILES | inhibition at 0.5 µM (read-out: % Inh @ 0.5 (μM))
18 | 14% |  |  | CCS(=O)(=O)N(Cc1ccc(F)c(C(F)(F)F)c1)c1sc2ccccc2c1-c1ccc(F)cc1 [Compound 201, N-[3-(4-Fluoro-phenyl)-benzo[b]thiophen-2-yl]-N-(4-fluoro-3-trifluoromethyl-benzyl)-ethanesulfonamide] | 
19 | 32% |  |  | CCS(=O)(=O)N(Cc1ccc(F)c(C(F)(F)F)c1)c1sc2ccccc2c1-c1ccsc1 [Compound 202, N-(4-Fluoro-3-trifluoromethyl-benzyl)-N-(3-thiophen-3-yl-benzo[b]thiophen-2-yl)-ethanesulfonamide] | 
20 | 98% | 13 nM |  | O=Cc1c(N(Cc2ccc(F)c(F)c2)S(=O)(=O)c2ccccc2)sc2ccccc12 [Compound 206, N-(3,4-Difluoro-benzyl)-N-(3-formyl-benzo[b]thiophen-2-yl)-benzenesulfonamide] | 
21 | 98% | 16 nM |  | O=Cc1c(N(Cc2ccc(F)c(C(F)(F)F)c2)S(=O)(=O)c2ccccc2)sc2ccccc12 [Compound 207, N-(4-Fluoro-3-trifluoromethyl-benzyl)-N-(3-formyl-benzo[b]thiophen-2-yl)-benzenesulfonamide] | 
22 | 96% | 12 nM |  | CS(=O)(=O)N(Cc1ccc(F)c(C(F)(F)F)c1)c1sc2ccccc2c1C=O [Compound 208, N-(4-Fluoro-3-trifluoromethyl-benzyl)-N-(3-formyl-benzo[b]thiophen-2-yl)-methanesulfonamide] | 
23 | 91% | 8 nM |  | CCS(=O)(=O)N(Cc1ccc(F)c(C(F)(F)F)c1)c1sc2ccccc2c1C=O [Compound 210, N-(4-Fluoro-3-trifluoromethyl-benzyl)-N-(3-formyl-benzo[b]thiophen-2-yl)-ethanesulfonamide] | 
24 | 80% | 30 nM |  | COC(=O)c1ccc(S(=O)(=O)N(Cc2ccc(F)c(C(F)(F)F)c2)c2sc3ccccc3c2C=O)cc1 [Compound 211, N-(3-Formyl-benzo[b]thiophen-2-yl)-N-(4-fluoro-3-trifluoromethyl-benzyl)-4-carbomethoxy-benzenesulfonamide] | 
25 | 101% | 11.4 nM |  | CCS(=O)(=O)N(Cc1ccc(F)c(F)c1)c1sc2ccccc2c1C=O [Compound 212, N-(3,4-Difluoro-benzyl)-N-(3-formyl-benzo[b]thiophen-2-yl)-ethanesulfonamide] | 
26 | 97% | 2.1 nM |  | O=S(=O)(c1ccccc1)N(Cc1ccc(F)c(C(F)(F)F)c1)c1sc2ccccc2c1CO [Compound 214, N-(4-Fluoro-3-trifluoromethyl-benzyl)-N-(3-hydroxymethyl-benzo[b]thiophen-2-yl)-benzenesulfonamide] | 
27 | 90% | 1 nM |  | O=C(O)c1ccc(S(=O)(=O)N(Cc2ccc(F)c(C(F)(F)F)c2)c2sc3ccccc3c2CO)cc1 [Compound 218, N-(3-Hydroxymethyl-benzo[b]thiophen-2-yl)-N-(4-fluoro-3-trifluoromethyl-benzyl)-4-carboxy-benzenesulfonamide] | 
28 | 101% | 7.8 nM |  | CCS(=O)(=O)N(Cc1ccc(F)c(F)c1)c1sc2ccccc2c1CO [Compound 219, N-(3,4-Difluoro-benzyl)-N-(3-hydroxymethyl-benzo[b]thiophen-2-yl)-ethanesulfonamide] | 
29 | 95% | 1.7 nM |  | CC(O)c1c(N(Cc2ccc(F)c(F)c2)S(=O)(=O)c2ccccc2)sc2ccccc12 (stereo not drawn) [Compound 222, N-(3,4-Difluoro-benzyl)-N-[3-(1-hydroxy-ethyl)-benzo[b]thiophen-2-yl]-benzenesulfonamide] | 
30 | 100% | 1 nM |  | CC(O)c1c(N(Cc2ccc(F)c(C(F)(F)F)c2)S(C)(=O)=O)sc2ccccc12 (stereo not drawn) [Compound 224, N-(4-Fluoro-3-trifluoromethyl-benzyl)-N-[3-(1-hydroxy-ethyl)-benzo[b]thiophen-2-yl]-methanesulfonamide] | 
31 | 98% | 4 nM |  | CC(O)c1c(N(Cc2ccc(F)c(F)c2)S(C)(=O)=O)sc2ccccc12 (stereo not drawn) [Compound 225, N-(3,4-Difluoro-benzyl)-N-[3-(1-hydroxy-ethyl)-benzo[b]thiophen-2-yl]-methanesulfonamide] | 
32 | 99% | 2 nM |  | CCS(=O)(=O)N(Cc1ccc(F)c(F)c1)c1sc2ccccc2c1C(C)(C)O [Compound 226, N-(3,4-Difluoro-benzyl)-N-[3-(1-hydroxy-1-methyl-ethyl)-benzo[b]thiophen-2-yl]-ethanesulfonamide] | 
33 | 101% | 0.6 nM |  | CCS(=O)(=O)N(Cc1ccc(F)c(C(F)(F)F)c1)c1sc2ccccc2c1C(C)(C)O [Compound 227, N-(4-Fluoro-3-trifluoromethyl-benzyl)-N-[3-(1-hydroxy-1-methyl-ethyl)-benzo[b]thiophen-2-yl]-ethanesulfonamide] | 
34 |  | 74 nM | 94% | O=S(=O)(c1ccccc1)N(CC1CCCCC1)c1sc2ccccc2c1Br [Compound 232, N-(3-Bromo-benzo[b]thiophen-2-yl)-N-(cyclohexylmethyl)-benzenesulfonamide] | 

— patent US9434711B2 (Janssen Pharmaceutica, NV, priority 2007, dated 2016)
